Measurements from PMC4068261 (Journal of natural products, 2014).

What was measured:
HIV-1 [1] = assay: microbe, parasite or virus in culture; assay type: cell-based; settings: Human immunodeficiency virus 1, HOG.R5, read-out: anti-HIV activity IC50
HIV-1 [2] = settings: previous discovery; cited from earlier work

Work on `COc1cc(O)cc2c1C(=O)C[C@@H](c1ccccc1)O2` [Compound 5, alpinetin] yielded an IC50 (HIV-1 [1]) of 130 µM.

In the case of `C=Cc1c(C)c2cc3nc(c4c5[nH]c(cc6nc(cc1[nH]2)C(C)=C6CC)c(C)c5C(=O)[C@@H]4C(=O)OC)[C@@H](CCC(=O)O)[C@@H]3C` [pheophorbide a], the “anti-HIV activity (in words)” value (HIV-1 [2]) is given as “potent anti-HIV agent”.
